In patent US5482970A (priority 1993, dated 1996):

Legend:
[1] = In vitro skin permeation and metabolism, two-compartment diffusion cell (Example 6); assay type: in vitro ADME, hairless mouse (HRS/J strain); conditions: for metabolised at 5 h: mouse, of total permeated, read-out: % Metabolite; for Transdermal Flux Q1, Inocoterone: metabolite from applied inocoterone acetate
Description: (§1) The freshly excised hairless mouse skin was used in the two-compartment diffusion cell method of Chlen et at., Drug Development and Industrial Pharmacy, 11, […] (1985). The hairless mouse (HRS/J strain) was sacrificed just prior to the experiment by cervical dislocation. A square section of the abdominal skin was surgically removed and mounted between two side-by-side half cells; the exposed area of the skin being approximately 0.64 cm^2. A 1-10% weight/volume (w/v) solution of inocoterone acetate and vehicle was added to the donor compartment and a 40% w/v polyethylene glycol 400/normal saline solution was added to the receptor compartment. Simultaneous skin permeation and biotransformation studies Were conducted in a thermostated diffusion cell apparatus at 37° C. At appropriate intervals samples were withdrawn from the receptor compartment and analyzed for inocoterone acetate and its metabolite, inocoterone, by high pressure liquid chromatography. […] Each experiment was carried out in at least triplicate. This method was used in Examples 3 to 6.
Compositions of 10% w/v of inocoterone acetate in vehicle solutions were prepared by dissolving 1 g of the medicament in 10 ml of a mixture of isopropyl myristate and 95% ethanol in the following volume percent ratios: 100:0, 95:5, 70:30, 60:40, 50:50, 40:60, 30:70, 5:95 and 0:100, respectively. The in vitro skin permeation and metabolism rates were measured using the method described under the in vitro skin permeation test method. The results of these measurements, in terms of the cumulative mount of unchanged medicament and its metabolite permeated in μmoles per square centimeter with time, over 5 hours are given in FIG. 1.
In this example, the results of the use of ethanol as the polar organic solvent in combination with various fatty acid esters for the simultaneous skin permeation and metabolism of inocoterone acetate solution are shown.

[2] = In vitro skin permeation and metabolism of Carbopol 940 gels, Franz diffusion cell (Example 13); assay type: in vitro ADME, hairless mouse; conditions: for metabolised at 5 h: mouse, read-out: % Metabolite; for Transdermal Flux Q1, Inocoterone: metabolite
Method: For the evaluation of pharmaceutical compositions of the present invention, the freshly excised hairless mouse skin was used in the diffusion cell method of Franz, Current Problems in Dermatology, 7, 58-68 (1978), in a vertical position, the exposed area of the skin being approximately 1.8 cm^2. The pharmaceutical formulation of known concentration in vehicle was added to the upper compartment of the cell, which was exposed to the stratum corneum side of the skin, and a 40% polyethylene glycol 400/normal saline solution was placed in the lower compartment The penetration and metabolism rates were studied in a thermostated diffusion cell at 37° C. using the analytical method described above. Each experiment was carried out in at least triplicate. This method was used in Examples 7 and 13.
In this example the simultaneous skin permeation and metabolism rates of inocoterone acetate incorporated in the Carbopol 940 gels formulated using the compositions described in Example 7 are shown.

[3] = system: rat sebaceous gland; experiment: In vivo antiandrogen activity test, rat: volume density of smooth endoplasmic reticulum of the sebaceous gland
[4] = system: prostate; experiment: In vivo antiandrogen activity test, rat: prostate (systemic effect)
[5] = Hydrolysis in blank receptor solution; assay type: physicochemical; conditions: 40% w/v polyethylene glycol 400/normal saline, 37° C., time course of permeation experiment
Description: as §1

[6] = vehicle 10% Butyl laurate-90% Ethanol
[7] = vehicle 10% Ethyl laurate-90% Ethanol
[8] = vehicle 10% Ethyl oleate-90% Ethanol
[9] = vehicle 10% Isopropyl palmitate-90% Ethanol
[10] = vehicle 10% Propyl laurate-90% Ethanol
[11] = Carbopol 940 gel: inocoterone acetate 10.0, butyl laurate 6.0, ethanol 50.0% w/w
[12] = Carbopol 940 gel: inocoterone acetate 10.0, ethyl laurate 6.0, ethanol 50.0% w/w
[13] = Carbopol 940 gel: inocoterone acetate 10.0, isopropyl myristate 6.0, ethanol 50.0% w/w

With `CCC1=C2CC[C@]3(C)[C@@H](OC(C)=O)CC[C@H]3[C@@H]2CCC1=O` [Inocoterone acetate, 3β-acetoxy-6-ethyl-3αβ-methyl-1,2,3,3a, 4,5,8,9,9a,9b-decahydro-7H-benz(e)inden-7-one] the transcutaneous penetration ([1]; isopropyl myristate-ethanol mixture, Example 3) was “increased transcutaneous penetration”, the metabolised at 5 h [1, 6] was 57.7% and the metabolised at 5 h [1, 7] was 67.5%. The metabolised at 5 h [1, 8] was 66.4%, the metabolised at 5 h [1, 9] was 74.5% and the metabolised at 5 h [1, 10] was 70.2%. The metabolised at 5 h ([1]; vehicle Ethanol) was 100%, the “Transdermal Flux Q1, Inocoterone Acetate” value [1, 6] was 39.9 × 10^2 μmoles/cm^2 /5 hrs and the “Transdermal Flux Q1, Total Inocoterone” value [1, 6] was 94.4 × 10^2 μmoles/cm^2 /5 hrs. For the same compound, the “Transdermal Flux Q1, Inocoterone Acetate” value [1, 7] was 28.1 × 10^2 μmoles/cm^2 /5 hrs, the “Transdermal Flux Q1, Total Inocoterone” value [1, 7] was 86.4 × 10^2 μmoles/cm^2 /5 hrs and the “Transdermal Flux Q1, Inocoterone Acetate” value [1, 8] was 18.5 × 10^2 μmoles/cm^2 /5 hrs. For the same compound, the “Transdermal Flux Q1, Total Inocoterone” value [1, 8] was 55.1 × 10^2 μmoles/cm^2 /5 hrs, the “Transdermal Flux Q1, Inocoterone Acetate” value [1, 9] was 9.4 × 10^2 μmoles/cm^2 /5 hrs and the “Transdermal Flux Q1, Total Inocoterone” value [1, 9] was 36.9 × 10^2 μmoles/cm^2 /5 hrs. The “Transdermal Flux Q1, Inocoterone Acetate” value [1, 10] was 25.8 × 10^2 μmoles/cm^2 /5 hrs, the “Transdermal Flux Q1, Total Inocoterone” value [1, 10] was 86.6 × 10^2 μmoles/cm^2 /5 hrs and the “Transdermal Flux Q1, Inocoterone Acetate” value ([1]; vehicle Ethanol) was 0 × 10^2 μmoles/cm^2 /5 hrs. The “Transdermal Flux Q1, Total Inocoterone” value ([1]; vehicle Ethanol) was 1.1 × 10^2 μmoles/cm^2 /5 hrs, the “Transdermal Flux Q1, Inocoterone Acetate” value [2, 11] was 45.2 × 10^2 μmoles/cm^2 /5 hours and the “Transdermal Flux Q1, Total Inocoterone” value [2, 11] was 111.4 × 10^2 μmoles/cm^2 /5 hours. The “Transdermal Flux Q1, Inocoterone Acetate” value [2, 12] was 38.4 × 10^2 μmoles/cm^2 /5 hours, the “Transdermal Flux Q1, Total Inocoterone” value [2, 12] was 91.1 × 10^2 μmoles/cm^2 /5 hours and the “Transdermal Flux Q1, Inocoterone Acetate” value [2, 13] was 36.2 × 10^2 μmoles/cm^2 /5 hours. The “Transdermal Flux Q1, Total Inocoterone” value [2, 13] was 99.0 × 10^2 μmoles/cm^2 /5 hours, the metabolised at 5 h [2, 11] was 59.4% and the metabolised at 5 h [2, 12] was 57.8%. For the same compound, the metabolised at 5 h [2, 13] was 63.4%, the “inhibition of testosterone-induced increase in volume density of smooth endoplasmic reticulum vesicles in intermediate cells of sebaceous gland” value ([3]; 40% isopropyl myristate-60% ethanol, 0.5 mg/cm^2/day, 5 days, 5 cm^2, testosterone propionate-treated castrated rats) was “completely inhibited” and the “inhibition of the effects of testosterone on the sebaceous gland” value ([3]; ethanol vehicle, 0.5 mg/cm^2/day, 5 days, 5 cm^2, testosterone propionate-treated castrated rats) was 60%. For the same compound, the “volume density of smooth endoplasmic reticulum (SER)” value ([3]; intact rats and castrated rats stimulated with testosterone propionate, topical, 0.25 to 25 mg/rat/day, 1 to 3 weeks) was “dose related reduction in volume density of SER”, the “efficacy in isopropyl myristate-ethanol mixture” value ([3]; isopropyl myristate-ethanol mixture compared with ethanol) was “greater efficacy” and the “effect on prostate weight” value ([4]; intact and castrated testosterone propionate-treated rats, topical, any dose (0.25 to 25 mg/rat/day)) was “no significant effect on prostate weight at any dose”. For the same compound, the “systemic antiandrogenic effect as evidenced by changes in the prostate” value ([4]; isopropyl myristate-ethanol mixture, topical 0.5 mg/cm^2/day, 5 days, testosterone propionate-treated castrated rats) was “resulted in a systemic anfiandrogenic effect” and the “hydrolysis in the blank receptor solution” value [5] was “No significant hydrolysis”.
For `CCC1=C2CC[C@]3(C)[C@@H](O)CC[C@H]3[C@@H]2CCC1=O` [Inocoterone, 6-ethyl-3αβ-methyl-1,2,3,3a,4,5,8,9,9a,9b-decahydro-7H-benz(e)inden-3-ol-7-one], the “Transdermal Flux Q1, Inocoterone” value [1, 6] was 54.5 × 10^2 μmoles/cm^2 /5 hrs, the “Transdermal Flux Q1, Inocoterone” value [1, 7] was 58.3 × 10^2 μmoles/cm^2 /5 hrs and the “Transdermal Flux Q1, Inocoterone” value [1, 8] was 36.6 × 10^2 μmoles/cm^2 /5 hrs. For the same compound, the “Transdermal Flux Q1, Inocoterone” value [1, 9] was 27.5 × 10^2 μmoles/cm^2 /5 hrs, the “Transdermal Flux Q1, Inocoterone” value [1, 10] was 60.8 × 10^2 μmoles/cm^2 /5 hrs and the “Transdermal Flux Q1, Inocoterone” value ([1]; vehicle Ethanol) was 1.1 × 10^2 μmoles/cm^2 /5 hrs. For the same compound, the “Transdermal Flux Q1, Inocoterone” value [2, 11] was 66.2 × 10^2 μmoles/cm^2 /5 hours, the “Transdermal Flux Q1, Inocoterone” value [2, 12] was 52.7 × 10^2 μmoles/cm^2 /5 hours and the “Transdermal Flux Q1, Inocoterone” value [2, 13] was 62.8 × 10^2 μmoles/cm^2 /5 hours.
